Results published in patent US3984410A, “Isourea acetylphosphate insecticides” (priority 1975, dated 1976).
≈ marks a conversion by molar mass, not a printed value. Read-outs that look alike come from different tables or passages of the source.

Tests used:
Format in all cases: in vivo
[1] = system: German Cockroach [Blattella germanica (Linne)]; experiment: German Cockroach spray
Procedure: (§1) Test compounds are diluted in a 50--50 acetone-water solution. Two cc of the solutions are sprayed through a DeVilbiss type EGA hand spray gun into circular cardboard cages containing 10 l-month-old German cockroach nymphs. The test cages are covered on the bottom with cellophane and the top with tulle netting. Percent mortality is recorded 7 days later. Test concentrations range from 0.1% down to that at which approximately 50% mortality occurs.

[2] = system: Black Bean Aphid [Aphis fabae (Scop.)]; experiment: Direct Spray Assay on Black Bean Aphid; settings: direct spray on nasturtium plants; mortality after 7 days
Procedure: Nasturtium plants (Tropaeolum sp.), approximately 5 cm tall, are transplanted into sandy loam soil in 3-inch clay pots and infested with 25-50 black bean aphids of mixed ages. Twenty-four hours later they are sprayed, to the point of runoff, with 50--50 acetone-water solutions of the test chemicals. Treated plants are held in the greenhouse and mortality is recorded after 7 days. Test concentrations range from 0.05% down to that at which 50% mortality occurs.

[3] = system: Green Peach Aphid [Myzus persicae (Sulzer)]; experiment: Green Peach Aphid spray on radish plants; settings: sprayed to runoff on radish plants; mortality after 48 hours
Procedure: Radish plants (Rhaphanus sativus), approximately 2 cm tall, are transplanted into sandy loam soil in 3-inch clay pots and infested with 25-50 green peach aphids of mixed ages. Twenty-four hours later they are sprayed, to the point of runoff, with 50--50 acetone-water solutions of the test chemicals. Treated plants are held in the greenhouse and mortality is recorded after 48 hours. Test concentrations range from 0.05% down to that at which 50% mortality occurs.

[4] = system: housefly (Musca domestica L.); experiment: Housefly mortality, residue on aluminum dishes; settings: 25 3-day old female houseflies; mortality after 48 hours
Procedure: Test compounds are diluted in acetone and aliquots are pipetted onto the bottom of 55 × 15 mm aluminum dishes. To insure even spreading of the chemical on the bottom of the dishes, 1 ml of acetone containing 0.02% peanut oil is also added to each dish. After all solvents have evaporated the dishes are placed in circular cardboard cages containing 25 3-day old female houseflies. The cages are covered on the bottom with cellophane and the top with tulle netting, and each contains a sugar-water saturated cotton plug for maintenance of the flies. Mortality is recorded after 48 hours. Test levels range from 100 μg/25 F. houseflies down to that at which approximately 50% mortality occurs.

[5] = system: Black Bean Aphid [Aphis fabae (Scop.)]; experiment: Systemic Assay on Black Bean Aphid; settings: 168 h, read-out: Insecticide Activity - Approximate LD50, BAS (Black Bean Aphid - systemic)
Procedure: Test chemicals are diluted in acetone and aliquots are thoroughly mixed into 500 grams of dry, sandy loam soil. The treated soil is placed in a pint ice cream carton and a nasturtium plant (Tropaeolum sp.) approximately 5 cm tall is transplanted into each carton. The plants are then infested with approximately 25 black bean aphids of mixed ages and placed in the greenhouse. Seven days later mortality is recorded. Test concentrations range from 10 PPM down to that at which approximately 50% mortality occurs.

[6] = system: Lygus Bug [Lygus hesperus (Knight)]; experiment: Lygus Bug spray; settings: spray on adult bugs; mortality after 48 hours
Procedure: as §1, with “are” for “are diluted”, “Devilbiss” for “DeVilbiss”, “one string bean pod and ten adult lygus bugs.” for “10 l-month-old German cockroach nymphs.”, “48 hours” for “7 days”, “0.05%” for “0.1%”

[7] = system: Southern House Mosquito [Culex pipiens quinquefasciatus (Say)]; experiment: Southern House Mosquito larvae in aqueous solution; settings: 48 h, read-out: Insecticide Activity - Approximate LD50, MOS (Southern House Mosquito)
Procedure: Insecticidal activity is determined using third-instar larvae of the mosquito (Culex pipiens quinquefasciatus). Ten larvae are placed in a 6-ounce, number 67 Dixie wax paper cup containing 100 ml of an aqueous solution of the test chemical. The treated larvae are stored at 70°F, and 48 hours later the mortality is recorded. Test concentrations range from 0.5 PPM down to that at which approximately 50% mortality occurs.

[8] = system: Tobacco Budworm [Heliothis virescens (F.)]; experiment: Tobacco Budworm on dipped Romaine lettuce leaves; settings: larvae, Romaine lettuce leaf dip; 48 hours plus 5 days
Procedure: (§2) Test compounds are diluted in a 50--50 acetone-water solution. Cotyledons of hyzini squash (Calabacita abobrinha), approximately 1 × 1.5 inches, are immersed in the test solutions for 2-3 seconds and placed on a wire screen to dry. The dried leaves are placed in petri dishes containing a moistened piece of filter paper and infested with five second-instar cabbage looper larvae. Mortality of the larvae is recorded 48 hours later, and a piece of synthetic media is added to dishes containing survivors. These are then held for 5 additional days to observe for any delayed effects of the test chemicals. Test concentrations range from 0.1% down to that at which approximately 50% mortality occurs.
The procedure is the same as that used for the cabbage looper, except that sections of Romaine lettuce (Latica sativa) leaves were used instead of cotyledons of hyzini squash.

[9] = system: Cabbage Looper [Trichoplusia ni (Hubner)]; experiment: Cabbage Looper on dipped squash cotyledons; settings: second-instar larvae, cotyledon dip; 48 hours plus 5 days
Procedure: as §2

[10] = spray on 1-month-old nymphs, mortality after 7 days
[11] = systemic, chemical in soil, mortality after 7 days

Structure (SMILES) | Insecticide Activity - Approximate LD50, GR (German Cockroach) [1, 10] | Insecticide Activity - Approximate LD50, BA (Black Bean Aphid - direct spray) [2] | Insecticide Activity - Approximate LD50, GPA (Green Peach Aphid) [3] | Insecticide Activity - Approximate LD50, HF (Housefly) [4] [μg/25 F.] | LC50 [5, 11] [µg/mL] | Insecticide Activity - Approximate LD50, LB (Lygus Bug) [6] | LC50 [7] [µg/mL] | Insecticide Activity - Approximate LD50, TBW (Tobacco Budworm) [8] | Insecticide Activity - Approximate LD50, CL (Cabbage Looper) [9] | Insecticide Activity - Approximate LD50, GR (German Cockroach) ([1]; 168 h) | LC50 ([5]; soil) [µg/mL]
C=CCN(CC=C)C(=NC(=O)CSP(=S)(OCC)OCC)OC [Compound 1, N,N-Diallyl-N'-(O,O-diethylphosphorodithioylacetyl)-O-methylisourea] | > .1% | .003% | > .05% | 10 | 3 (≈ 7.88 µM) | .05% | 1 (≈ 2.63 µM) |  |  |  | 
C=CCN(CC=C)C(=NC(=O)CSP(=S)(OC)OC)OC [Compound 2] | > .1% | .008% |  | 8 | 5 (≈ 14.2 µM) | > .05% | > 1 |  |  |  | 
CCOP(=S)(OCC)SCC(=O)N=C(OC)N1CCCCC1 [Compound 3] | > .1% | .001% | .008% | 25 | > 10 | .05% | 1 (≈ 2.71 µM) | > .1% | > .1% |  | 
CCOP(=S)(OCC)SCC(=O)N=C(OC)N1CCOCC1 [Compound 4, N-morpholino-N'-(O,O-diethylphosphorodithioylacetyl)-O-methylisourea] | > .1% | .0008% | > .05% | 27 | 5 (≈ 13.5 µM) | .05% | > 1 |  |  |  | 
CCOP(=S)(OCC)SCC(=O)N=C(OC)N(CC)CC [Compound 5] | .1% | .001% | .03% | 23 | > 10 | > .05% | > 1 | > .1% | > .1% |  | 
CCN(CC)C(=NC(=O)CSP(=S)(OC)OC)OC [Compound 6] | > .1% | .05% | > .05% | 24 |  | > .05% | > 1 | > .1% | > .1% |  | 
CCOP(=S)(OCC)SCC(=O)N=C(OC)N(C)c1ccccc1 [Compound 8] |  | .0008% | .03% | 30 |  | > .05% | > 1 | .1% | > .1% | > .05% | > 1
C=CCN(C(=NC(=O)CSP(=S)(OCC)OCC)OC)c1ccccc1 [Compound 10] | > .1% | > .05% |  | 10 |  | .05% | > 1 | > .1% | > .1% |  | 
C=CCN(C(=NC(=O)CSP(=S)(OC)OC)OC)c1ccccc1 [Compound 11] | > .1% | .005% | .03% | 30 | > 10 | > .05% | > 1 | > .1% | > .1% |  | 
CCOP(=S)(OCC)SCC(=O)N=C(OC)N(C)Cc1ccccc1 [Compound 12] | > .1% | > .05% |  | 24 |  | > .05% | > 1 | > .1% | > .1% |  | 
COC(=NC(=O)CSP(=S)(OC)OC)N(C)Cc1ccccc1 [Compound 13] | > .1% | > .05% |  | 30 |  | > .05% | > 1 | > .1% | > .1% |  | 
CCOP(=S)(OCC)SCC(=O)N=C(OC)N(CC)c1ccccc1 [Compound 15] | > .1% | .005% | .03% | 30 | 2 (≈ 4.94 µM) | > .05% | > 1 | > .1% | .1% |  | 
CCN(C(=NC(=O)CSP(=S)(OC)OC)OC)c1ccccc1 [Compound 16] | > .1% | .03% |  | 25 | > 10 | > .05% | > 1 | > .1% | .1% |  | 
CCOP(=S)(OCC)SCC(=O)N=C(OC)N(CC)c1cccc(C)c1 [Compound 18] | .1% | .0005% | .005% | 22 | 5 (≈ 11.9 µM) | > .05% | > 1 | .1% | > .1% |  | 
